From patent US20260253225A1, “OPTICAL SYSTEM AND METHOD FOR MONITORING ABNORMALITY ASSOCIATED PARAMETERS IN CELL-CONTAINING SAMPLES” (priority 2023, published 2026)

Columns and labels:
[1] = system: primary lymphocytes (benign), CD8 (malignant) and Jurkat (malignant) cells; test: TIRF microscopy of cell membrane fluctuations in a model of the immune synapse; format: cell-based, human; conditions: frequency ranges 0-5 Hz and 10-25 Hz, before and after Mibefradil treatment
From the text: So far, intracellular fluctuations as captured by the motion of intracellular particles or by the cell boundaries were described. The fluctuations of the cell membrane may have an impact on the formation and function of the immune synapse that forms between T cells and antigen presenting cells (APCs). To study such a possible impact, the inventors measured fluctuations of Jurkat cells at their interface with coverslips coated with αCD3ε antibodies. Such coverslips often serve as a model for the immune synapse, as the cells spread on the coverslips and get robustly activated. The membrane of the cells was stained with an αCD45 primary antibody, labeled with Alexa647 and imaged by time-lapse TIRF microscopy. […] The reflection light was detected using an avalanche photodiode (APD) with a band-pass filter of 650-720 nm. […] Fluorescence intensity of each pixel in each image was normalized by dividing its intensity with the average intensity of that time-dependent image. The temporal fluctuations of the normalized fluorescence intensities were analyzed by DFT for each pixel in a ROI. […] Live cells were measured without and after ATP depletion, while fixed cells served for control. […] The temporal fluctuations of the normalized fluorescence intensities were analyzed via DFT for each pixel in that ROI. […]

[2] = system: surface of aggregation of cells; test: Dynamic reflective laser speckled imaging of cell surface vibrations; format: cell-based; conditions: before and after mibefradil treatment, 0-5 Hz range
From the text: The inventors have used the above-described imaging system 120 (the experimental set up was built by modifying an inverted fluorescence microscope set up) to acquire the sequence of tissue's images-one such image is shown in FIG. 19A. The image data analysis described above were then used to determine cell vibrations at the surface of aggregation of cells before and after the augmentation of cell membrane vibrations using mibefradil. […] FIGS. 19C and 19D show power fit parameters for the ASD analysis results in the cells (shown in FIG. 19B) before and after mibefradil treatment: parameter b (FIG. 19C) and sum of amplitudes in the 0-5 Hz range (FIG. 19D). Multiple areas of cells (N=14) were measured and compared each before and after mibefradil treatment.

live Jurkat cells = test: DIC microscopy of intracellular particles motion (ASD/PSD and MSD analysis); format: cell-based, human; conditions: 10 μM blebbistatin treatment, compared with ATP depletion
Experimental: In the following experimental results of the spectral analysis of position fluctuations in time of intracellular particles in Jurkat T lymphocytes, each cell before and after ATP depletion, are presented. […] Depletion of cellular ATP was induced by 30 min incubation with 0.2 μM of the mitochondrial complex 1 inhibitor Rotenone (Sigma-Aldrich, St. Louis, MO, United States) together with 10 mM glycolysis inhibitor 2-deoxy-D-glucose (Sigma-Aldrich, St. Louis, MO, United States). For the visualization and monitoring of intracellular objects, including vesicles, Differential Interference Contrast (DIC) microscopy was employed. Reference is made to FIG. 6a where DIC image of a representative live Jurkat cell is shown. […]
After thresholding the objects, the x and y positions of each identified particle at each point of time (determined by the MultiTracker plug in) were recorded (FIGS. 6c-6e). […] Then, the DFT of these time dependent position changes were calculated for each spatial dimension. The average DFT amplitudes of all moving particles in each cell under each condition were determined for the x and y spatial dimensions. […]
From the position results of the detected intracellular particles, the MSD values for time-lags from 0.3 to 3 s (with a 0.3 s gradual increase) were calculated. The average MSD values were determined for that series of time-lags for each cell before and after ATP depletion. […]

Structure (SMILES)	cell membrane vibrations (average DFT amplitudes) [1]	mechanical vibrations of the cells' membrane [2]	effects on intracellular motion (live Jurkat cells)
COCC(=O)O[C@]1(CCN(C)CCCc2nc3ccccc3[nH]2)CCc2cc(F)ccc2[C@@H]1C(C)C [Mibefradil]	increases cell membrane vibrations in all cell types	an increase in mechanical vibrations of the cells' membrane	–
Cc1ccc2c(c1)C(=O)C1(O)CCN(c3ccccc3)C1=N2 (stereo not drawn) [blebbistatin]	–	–	effects on intracellular motion of blebbistatin treatment and ATP depletion were similar
